Laboratory results as given in article PMC11189555, “Aryl amino acetamides prevent Plasmodium falciparum ring development via targeting the lipid-transfer protein PfSTART1” (Nature Communications, 2024).

Legend:
[1] = biological target: T1, PfSTART1 in parasite lysate (Plasmodium falciparum, UniProt Q8I298); assay: Solvent profiling Western Blot (solvent induced protein precipitation); type: binding; conditions: 10 µM W-991 vs DMSO, 0-25% AEF
T1 construct: endogenous in cells; host or cells: P. falciparum 3D7 schizonts, NP40-soluble lysate
T1 sequence (Q8I298 entry or part of it): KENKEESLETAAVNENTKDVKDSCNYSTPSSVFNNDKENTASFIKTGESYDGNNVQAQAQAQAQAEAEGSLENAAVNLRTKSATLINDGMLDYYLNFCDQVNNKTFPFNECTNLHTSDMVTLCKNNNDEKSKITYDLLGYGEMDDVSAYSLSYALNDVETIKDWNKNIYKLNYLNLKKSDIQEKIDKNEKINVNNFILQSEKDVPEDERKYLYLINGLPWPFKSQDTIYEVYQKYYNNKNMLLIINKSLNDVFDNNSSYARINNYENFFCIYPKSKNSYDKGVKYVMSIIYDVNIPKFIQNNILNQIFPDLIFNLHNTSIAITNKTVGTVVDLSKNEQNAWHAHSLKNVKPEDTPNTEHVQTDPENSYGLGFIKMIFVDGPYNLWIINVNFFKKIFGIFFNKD
Experimental: 3D7 parasites at schizont stage were harvested with 10 x pellet volume of 0.15% saponin in PBS. To extract soluble material, 10 x pellet volume of 0.4% NP40 (IGEPAL CA-630, Sigma-Aldrich) in PBS with 1x Complete Protease cocktail tablet (Sigma-Aldrich) was added to the parasite pellets and 3 cycles of freeze/thawing was performed. Samples were then mechanically sheared by passage through 25 G and 30 G needles before lysate was cleared via centrifugation at 16,000 g x 30 min at 4 °C. Soluble fractions were collected and stored at −80 °C until use.
For the solvent challenge, lysate was subjected to either W-991 (10 µM) or DMSO (0.1%) treatment for 3 min before aliquoted into final concentrations of 0-25% of Acetic acid/Ethanol/Formic acid (AEF) at a 50:50:0.1 (v/v/v)[25],[26]. The treated lysate and AEF mixture was incubated at 37 °C for 20 min at 800 rpm before aggregates were pelleted at 17,000 g x 20 min at 4 °C. Soluble fractions were removed, added to the final concentration of 1x NuPAGE LDS Sample Buffer (Invitrogen) with 1:100 2-mercaptoethanol (Sigma Aldrich) and boiled for 3 min. Proteins were separated on an 4-12% acrylamide gel (NuPAGE, Invitrogen) and subsequently transferred by electroblotting onto nitrocellulose membranes. Blots were probed with primary antibody anti-PfSTART1 (1:1000), followed by secondary antibody anti-rabbit-HRP (1:4000, Merck Millipore). […]

ring-stage parasites = assay: Parasite reduction ratio assay; type: cell-based, Plasmodium falciparum
Experimental: Parasite reduction ratio assay. This was performed as previously described 9,10.
Briefly, asynchronous ring -stage parasites at 0.5% parasitemia and 2% haematocrit were exposed to compounds at 10 x EC50 of growth for five days with daily drug renewal. After each 24 h, a well from each treatment group was taken and washed three times in complete RPMI and final volume adjusted to 2% haematocrit. The washed culture was then aliquoted into a 96 well U-bottom plate and a 1:3 serial dilution into fresh uninfected RBCs was performed with four technical replicates for each time point. Plates were maintained in normal culturing conditions: media was replaced, and fresh RBCs given 1-2 times a week for three weeks, after which parasite growth was measured via lactate dehydrogenase assays. The number of viable parasites was calculated using the formula xn-1 +1, where x is the dilution factor and n is the number of wells that contain parasite growth. The viable parasite value was then expressed in log units and parasite reduction ratio was calculated as a decrease in […]

P. berghei = conditions: at concentrations that are effective against P. falciparum; ref Nguyen et al. 2024; cited from earlier work

CC(C)(Nc1ccc(Cl)c(S(=O)(=O)N2CCOCC2)c1)C(=O)Nc1ccc(F)c(Cl)c1 [W-991]
AEF concentration at which protection to PfSTART1 aggregation was elicited [1]: 19-21 % AEF | lag phases (ring-stage parasites; 60 nM W-991, lag phases 0-24 h, 48-96 h): more than 24 h | viable parasites after treatment (ring-stage parasites; 10 x EC50 (60 nM W-991) for up to 5 days, then 21 days culture): a proportion of parasites remained after a treatment period of 5 days | killing profile (ring-stage parasites; 10xEC50: 75 nM CQ, 60 nM W-991): slow | PRR calculations: log viability at Hours 24 (ring-stage parasites; Replicate 1, 24 Hours): 4.771 | PRR calculations: log viability at Hours 72 (ring-stage parasites; Replicate 1, 72 Hours): 3.34 | PRR (ring-stage parasites; Replicate 1, PRR calculations): 1.431 | log(parasite viability) +1 (ring-stage parasites; Replicate 1, T=1): 4.771 | Parasite viability (ring-stage parasites; Replicate 1, T=1, 1:3 dilution): 59049 | log(parasite viability) +1 (ring-stage parasites; Replicate 1, T=2): 3.34 | Parasite viability (ring-stage parasites; Replicate 1, T=2, 1:3 dilution): 2187 | log(parasite viability) +1 (ring-stage parasites; Replicate 1, T=3): 3.34 | Parasite viability (ring-stage parasites; Replicate 1, T=3, 1:3 dilution): 2187 | log(parasite viability) +1 (ring-stage parasites; Replicate 1, T=4): 3.34 | Parasite viability (ring-stage parasites; Replicate 1, T=4, 1:3 dilution): 2187 | log(parasite viability) +1 (ring-stage parasites; Replicate 1, T=5): 2.863 | Parasite viability (ring-stage parasites; Replicate 1, T=5, 1:3 dilution): 729 | log(parasite viability) +1 used in PRR calculations (ring-stage parasites; Replicate 2, Hours 72): 3.34 | log(parasite viability) +1 used in PRR calculations (ring-stage parasites; Replicate 2, Hours 120): 1.914 | PRR (ring-stage parasites; Replicate 2, PRR calculations): 1.426 | Parasite viability +1 (ring-stage parasites; Replicate 2, T=1): 177148 | log(parasite viability) +1 (ring-stage parasites; Replicate 2, T=1): 5.248 | Parasite viability (ring-stage parasites; Replicate 2, T=1, 1:3 dilution): 177147 | Parasite viability +1 (ring-stage parasites; Replicate 2, T=2): 2188 | log(parasite viability) +1 (ring-stage parasites; Replicate 2, T=2): 3.34 | Parasite viability (ring-stage parasites; Replicate 2, T=2, 1:3 dilution): 2187 | Parasite viability +1 (ring-stage parasites; Replicate 2, T=3): 2188 | log(parasite viability) +1 (ring-stage parasites; Replicate 2, T=3): 3.34 | Parasite viability (ring-stage parasites; Replicate 2, T=3, 1:3 dilution): 2187 | Parasite viability +1 (ring-stage parasites; Replicate 2, T=4): 2188 | log(parasite viability) +1 (ring-stage parasites; Replicate 2, T=4): 3.34 | Parasite viability (ring-stage parasites; Replicate 2, T=4, 1:3 dilution): 2187 | Parasite viability +1 (ring-stage parasites; Replicate 2, T=5): 82 | log(parasite viability) +1 (ring-stage parasites; Replicate 2, T=5): 1.914 | Parasite viability (ring-stage parasites; Replicate 2, T=5, 1:3 dilution): 81 | Parasite viability (1:3 dilution) (ring-stage parasites; replicate 3, T=1): 177147 | log(parasite viability) +1 (ring-stage parasites; replicate 3, T=1): 5.248 | Parasite viability (1:3 dilution) (ring-stage parasites; replicate 3, T=2): 2187 | log(parasite viability) +1 (ring-stage parasites; replicate 3, T=2 (48 hours in PRR calculations)): 3.34 | Parasite viability (1:3 dilution) (ring-stage parasites; replicate 3, T=3): 729 | log(parasite viability) +1 (ring-stage parasites; replicate 3, T=3 (72 hours in PRR calculations)): 2.863 | Parasite viability (1:3 dilution) (ring-stage parasites; replicate 3, T=4): 19683 | log(parasite viability) +1 (ring-stage parasites; replicate 3, T=4): 4.294 | Parasite viability (1:3 dilution) (ring-stage parasites; replicate 3, T=5): 81 | log(parasite viability) +1 (ring-stage parasites; replicate 3, T=5 (120 hours in PRR calculations)): 1.914 | PRR (ring-stage parasites; replicate 3, difference of log viability over 48 h (CQ 0-48 hours, W991 72-120 hours)): 0.9495 | effect on P. berghei parasitemia (P. berghei): does not reduce P. berghei parasitemia
